Values quoted from earlier work in patent publication US20090239872A1, “TREATMENT OF MESOTHELIOMA” (priority 2002, published 2009).

Key:
Conditions in all cases: qualitative statement
Flt-4 = Flt-4 (Homo sapiens, UniProt P35916)
c-Kit = c-Kit (Homo sapiens, UniProt P10721)
Flt-1 = Flt-1 (Homo sapiens, UniProt P17948)
Flt-1, sequence (P17948 27-1338, species assumed): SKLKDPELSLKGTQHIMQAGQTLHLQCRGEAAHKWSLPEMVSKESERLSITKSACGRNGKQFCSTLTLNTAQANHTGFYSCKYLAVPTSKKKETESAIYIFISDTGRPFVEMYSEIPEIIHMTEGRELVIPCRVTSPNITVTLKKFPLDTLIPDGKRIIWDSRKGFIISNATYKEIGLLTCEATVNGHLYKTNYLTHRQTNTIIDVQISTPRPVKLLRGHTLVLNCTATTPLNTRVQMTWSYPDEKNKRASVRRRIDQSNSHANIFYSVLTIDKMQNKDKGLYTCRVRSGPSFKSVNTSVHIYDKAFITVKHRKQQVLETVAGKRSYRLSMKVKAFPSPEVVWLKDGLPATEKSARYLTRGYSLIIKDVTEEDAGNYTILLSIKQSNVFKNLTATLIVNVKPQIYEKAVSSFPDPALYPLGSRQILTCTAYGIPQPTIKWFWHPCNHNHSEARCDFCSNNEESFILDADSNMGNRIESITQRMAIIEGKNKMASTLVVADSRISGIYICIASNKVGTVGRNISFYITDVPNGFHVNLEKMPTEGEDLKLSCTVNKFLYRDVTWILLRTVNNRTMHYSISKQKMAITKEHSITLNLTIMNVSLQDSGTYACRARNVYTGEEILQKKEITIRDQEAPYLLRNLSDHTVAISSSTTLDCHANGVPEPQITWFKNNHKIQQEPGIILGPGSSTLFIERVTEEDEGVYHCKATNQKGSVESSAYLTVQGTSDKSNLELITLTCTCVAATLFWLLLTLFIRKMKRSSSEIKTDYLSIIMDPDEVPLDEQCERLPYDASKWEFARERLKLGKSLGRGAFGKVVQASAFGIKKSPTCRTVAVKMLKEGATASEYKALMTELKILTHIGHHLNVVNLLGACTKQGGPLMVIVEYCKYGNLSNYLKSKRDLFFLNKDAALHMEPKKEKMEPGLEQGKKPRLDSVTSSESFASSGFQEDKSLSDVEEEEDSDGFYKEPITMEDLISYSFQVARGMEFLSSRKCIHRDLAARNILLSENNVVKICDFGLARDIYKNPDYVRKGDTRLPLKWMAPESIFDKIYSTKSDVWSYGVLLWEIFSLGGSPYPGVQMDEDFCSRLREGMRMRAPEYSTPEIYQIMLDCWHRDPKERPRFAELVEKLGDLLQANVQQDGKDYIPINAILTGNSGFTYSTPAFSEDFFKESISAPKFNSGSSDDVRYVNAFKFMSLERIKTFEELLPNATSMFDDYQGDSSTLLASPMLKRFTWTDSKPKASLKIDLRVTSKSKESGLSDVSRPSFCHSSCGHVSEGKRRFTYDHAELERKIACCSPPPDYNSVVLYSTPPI

c-Kit, sequence (P10721 26-976): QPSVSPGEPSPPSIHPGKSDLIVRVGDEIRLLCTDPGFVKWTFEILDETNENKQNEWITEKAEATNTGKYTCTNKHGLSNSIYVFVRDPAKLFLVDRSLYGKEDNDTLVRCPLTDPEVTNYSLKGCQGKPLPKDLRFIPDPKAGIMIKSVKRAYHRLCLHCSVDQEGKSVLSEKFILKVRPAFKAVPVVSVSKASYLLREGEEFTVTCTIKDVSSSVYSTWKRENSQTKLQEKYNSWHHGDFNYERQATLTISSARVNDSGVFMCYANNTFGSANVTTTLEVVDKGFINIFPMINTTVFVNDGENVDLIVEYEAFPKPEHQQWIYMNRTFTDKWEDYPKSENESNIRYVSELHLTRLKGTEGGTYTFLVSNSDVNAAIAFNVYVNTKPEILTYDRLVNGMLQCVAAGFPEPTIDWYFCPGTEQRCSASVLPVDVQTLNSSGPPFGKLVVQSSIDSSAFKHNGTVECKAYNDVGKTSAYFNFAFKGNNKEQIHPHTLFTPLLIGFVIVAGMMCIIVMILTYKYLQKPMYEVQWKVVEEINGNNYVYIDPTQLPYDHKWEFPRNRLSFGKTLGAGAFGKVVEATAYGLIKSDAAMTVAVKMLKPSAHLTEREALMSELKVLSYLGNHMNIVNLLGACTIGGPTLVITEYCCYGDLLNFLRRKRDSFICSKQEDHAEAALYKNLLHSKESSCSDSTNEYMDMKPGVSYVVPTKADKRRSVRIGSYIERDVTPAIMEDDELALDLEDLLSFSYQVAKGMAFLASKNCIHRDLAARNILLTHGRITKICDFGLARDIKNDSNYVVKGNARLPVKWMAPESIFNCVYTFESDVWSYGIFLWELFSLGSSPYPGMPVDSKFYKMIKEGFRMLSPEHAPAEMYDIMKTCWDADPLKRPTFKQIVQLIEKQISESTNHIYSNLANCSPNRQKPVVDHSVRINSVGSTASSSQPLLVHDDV
Flt-4, sequence (P35916 25-1363, species assumed): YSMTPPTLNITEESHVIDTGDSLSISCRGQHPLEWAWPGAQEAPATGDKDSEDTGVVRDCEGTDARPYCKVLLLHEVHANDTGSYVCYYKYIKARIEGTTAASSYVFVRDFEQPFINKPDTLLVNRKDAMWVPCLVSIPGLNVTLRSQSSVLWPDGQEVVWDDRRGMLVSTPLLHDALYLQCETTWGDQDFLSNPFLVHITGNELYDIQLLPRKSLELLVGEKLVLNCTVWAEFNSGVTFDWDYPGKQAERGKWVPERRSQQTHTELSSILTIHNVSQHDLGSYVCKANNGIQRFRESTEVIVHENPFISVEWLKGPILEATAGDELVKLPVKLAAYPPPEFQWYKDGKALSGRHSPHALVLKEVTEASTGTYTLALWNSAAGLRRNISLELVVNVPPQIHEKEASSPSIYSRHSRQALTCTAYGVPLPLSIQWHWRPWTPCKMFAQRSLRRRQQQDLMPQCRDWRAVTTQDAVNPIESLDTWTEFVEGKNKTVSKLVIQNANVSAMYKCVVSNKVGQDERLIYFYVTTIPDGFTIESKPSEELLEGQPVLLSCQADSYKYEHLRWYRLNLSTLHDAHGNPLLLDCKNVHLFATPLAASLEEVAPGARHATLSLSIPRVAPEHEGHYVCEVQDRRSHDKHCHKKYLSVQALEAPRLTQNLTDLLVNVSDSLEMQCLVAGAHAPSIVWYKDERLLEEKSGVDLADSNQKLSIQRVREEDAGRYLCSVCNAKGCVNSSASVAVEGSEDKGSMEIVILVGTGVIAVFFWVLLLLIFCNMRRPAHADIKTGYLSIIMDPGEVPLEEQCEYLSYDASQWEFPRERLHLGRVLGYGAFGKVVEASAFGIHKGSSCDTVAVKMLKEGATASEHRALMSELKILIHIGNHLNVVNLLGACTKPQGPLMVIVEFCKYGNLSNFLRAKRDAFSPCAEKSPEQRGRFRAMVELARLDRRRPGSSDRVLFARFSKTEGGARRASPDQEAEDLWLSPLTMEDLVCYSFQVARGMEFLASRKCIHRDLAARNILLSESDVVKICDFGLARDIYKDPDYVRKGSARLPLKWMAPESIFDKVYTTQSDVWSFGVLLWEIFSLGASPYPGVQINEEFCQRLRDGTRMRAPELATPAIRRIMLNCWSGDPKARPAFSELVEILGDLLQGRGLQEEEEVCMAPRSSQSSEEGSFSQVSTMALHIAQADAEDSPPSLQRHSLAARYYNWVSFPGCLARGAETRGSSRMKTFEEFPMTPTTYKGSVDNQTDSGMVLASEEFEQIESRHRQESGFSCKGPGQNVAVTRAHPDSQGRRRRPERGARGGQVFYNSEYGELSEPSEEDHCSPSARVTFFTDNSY

inhibition of Flt-4 (Flt-4): can also inhibit
activity against c-Kit (c-Kit): has activity
inhibition of Flt-1 (Flt-1): can also inhibit
Compound: Clc1ccc(Nc2nnc(Cc3ccncc3)c3ccccc23)cc1 [ZK222584, 1-(4-chloroanilino)-4-(4-pyridylmethyl)phthalazine]
